In brackets after ≈: the same amount, converted by molar mass.
Columns and labels:
[1] = Fluorescence spectral properties of fluorogens and their ethanethiol adducts; format: physicochemical; conditions: 10:90 DMSO: water
Description: For the application of this fluorogenic reaction to the detection of thiols and dithiols, two important criteria are the fluorescence intensity of the thiol addition product and the ratio of its fluorescence compared to its parent fluorogen. We studied the effect of electron withdrawing and donating substituants on these criteria by preparing the derivatives of fluorogen 4 shown in Scheme 1. Fluorogen 5, bearing an electron withdrawing ester group, was prepared according to a protocol similar to that used for fluorogen 4, but using an ester-substituted maleic anhydride derived by oxidation of dimethyl L-tartrate according to a published procedure.^31 Fluorogen 6 bears an electron donating methyl group and was obtained in similar yield by adaptation of the standard literature protocol,^25 using citraconic anhydride. The reaction of 5 and 6 with ethanethiol in DMSO led to the formation of thiol adducts 8 and 9, whose fluorescence was characterized as shown in Table 1. Even from this small series, certain tendencies are apparent. Increasing the electron donating capacity of the substituent appears to have a significant effect on the absorbance maximum corresponding to the wavelength of excitation, increasing by 37 nm from 8 to 9. Although the emission wavelength increases very slightly over the same series, the net effect on the Stokes shift is a significant decrease with increasing electron donating capacity of the substituent.
(§1) Comparison of the fluorescent properties^34 of the four different parent fluorogens (and their corresponding thiol adducts) studied herein (see Table 2) substantiates our retention of compounds 13 and 20 as candidates for further tests with proteins.
The following material were obtained from Aldrich and were used without further purification: 2-hydroxy-5-nitrobenzaldehyde, N-acetylglycine, maleic anhydride, p-nitrophenylacetic acid, L-aspartic acid dimethyl ester hydrochloride, citraconic anhydride, dimethyl L-tartrate, dimethyl malonate. All reactions were carried out under an atmosphere of dry nitrogen employing conventional bench-top techniques except for reactions with thiols. ^13C-NMR and ^1H-NMR spectra were recorded on AMXR400 or AMX300 spectrometers and were referenced to the residual proton or ^13C signal of the solvent. Mass spectra were determined by FAB+ ionization on an AutoSpecQ spectrometer at the Regional Mass Spectrometry Centre at the Université de Montréal. Infrared spectra were recorded on a Perkin-Elmer (FTIR) spectrometer. Melting points (uncorrected) were determined on a Unimelt Tomas-Hoover or on a Gallenkamp meting point apparatus. Fluorescence spectra were recorded using a Varian Cary Eclipse fluorimeter and gel electrophoresis was carried out on a SpectraPhoresis 100 apparatus.

Solubility = format: physicochemical
Description: as §1
(§2) Finally, we wished to determine if fluorogens such as 13 and 20 were cytotoxic. […] Furthermore, even at 300 μM 20, the limit of its solubility in cell culture, 70% of COS cells were still viable (FIG. 8). […] The convenience of the application of this fluorescent labeling method is obvious from the low cytoxocity of 20, even at concentrations 30 times greater than those necessary for efficient labeling.

mCys-Fos = target: T1, mCys-Fos (Homo sapiens, UniProt P01100, C204S); test: Protein labeling in vitro, SDS-PAGE with UV illumination; format: biochemical; conditions: 0.242 mM protein, 0.5 mM of 20 or 0.05 mM of 13, 25° C. overnight
T1 construct: the C99S mutant of a fragment of Fos; His-tag (N); made in house; host or cells: XL1-blue E. coli
Description: (§3) As mentioned in the introduction, an α-helical protein was designed to bear two cysteine residues, separated by a distance complementary to that between the maleimide groups of the designated fluorogen. The protein chosen as a starting point for this design was the C99S mutant of a fragment of Fos,^21 a known α-helical protein^22 whose recombinant expression has been published.^23 Site-directed mutagenesis was then performed^20,35 to introduce a cysteine residue (L56C), separated by two turns of the α-helical motif from the native Cys49, positioning the protein's only two thiol groups approximately 10 Å apart.^36 Although at higher concentrations, Fos is known to form a homodimer,^22 the distance between the intermolecular cysteine residues in this putative homodimer would render their reaction with a single fluorogen molecule impossible. […]
(§4) Purified mCys-Fos and diCys-Fos were then tested in vitro for their ability to react with fluorogens 13 and 20. After incubation of 0.242 mM protein with 0.5 mM of 20 or 0.05 mM of 13 at 25° C. overnight, glycerol was added and the reaction mixtures were analyzed by SDS-PAGE using UV illumination and then Coomassie blue staining. […]

diCys-Fos [2] = target: T2, diCys-Fos (Homo sapiens, UniProt P01100, C204S/L161C); test: Labeling in lysate of E. coli cells expressing diCys-Fos, SDS-PAGE; format: biochemical; conditions: overnight at 25° C.
Description: The specificity of the dithiol addition reaction of 20 with diCys-Fos in the presence of other proteins was also confirmed through a simple in vitro experiment. The lysate of E. coli cells expressing diCys-Fos was allowed to react with 20 overnight at 25° C. prior to analysis by SDS-PAGE.

COS cells = test: Cytotoxicity, MTT and PI assays; format: cell-based
Description: as §2

diCys-Fos [3] = target: T2, diCys-Fos; test: Protein labeling in vitro, SDS-PAGE with UV illumination; format: biochemical; set-up: the C99S mutant of a fragment of Fos; conditions: 0.242 mM protein, 0.5 mM of 20 or 0.05 mM of 13, 25° C. overnight
Description: as §3, §4

diCys-Fos [4] = target: T2, diCys-Fos; test: Protein labeling in living COS cells expressing diCys-Fos fused to RBD of Raf; format: cell-based; set-up: the C99S mutant of a fragment of Fos; expressed in transfected cells; host or cells: COS cells
Description: The ultimate proof of principle for this method is its successful application to labeling a specific protein in living eukaryotic cells. To test for this potential, our diCys-Fos probe protein was genetically fused to RBD, the Ras-binding domain of Raf, and COS cells were then transfected with the expression plasmid for this fusion protein. A solution of 20 was then added to cultures of COS cells expressing diCys-Fos as well as mock COS cells transfected with an empty expression plasmid.

T2 sequence (P01100 118-211 L161C/C204S limits assumed): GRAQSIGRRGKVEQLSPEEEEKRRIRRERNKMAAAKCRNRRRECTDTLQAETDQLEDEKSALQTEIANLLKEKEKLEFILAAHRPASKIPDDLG
T1 sequence (P01100 118-211 C204S limits assumed): as the sequence (P01100 118-211 L161C/C204S limits assumed) above, with C44L counted along it

COC(=O)C[C@@H](C(=O)OC)N1C(=O)c2cc(N3C(=O)C=CC3=O)cc3cc(N4C(=O)C=CC4=O)cc(c23)C1=O [Compound 20, N-(3,6-Dimaleimidyl-1,8-naphthalyl)-L-aspartic acid dimethyl ester]
Stokes shift [1]: 67 nm
λem (emission band) [1]: 525-650 nm
λem, wavelength corresponding to center of Full Width at Half Maximum of emission band [1]: 578 nm
λexc [1]: 511 nm
IF Ratio ([1]; ratio of areas under emission bands of fluorogen and thiol adduct): 8.5
solubility in water / aqueous DMSO (Solubility): soluble in aqueous solutions containing as little as 5% DMSO
solubility (Solubility; cell culture, plasma or biological fluid, read-out: limit of solubility in cell culture): 300 µM (≈ 159 µg/mL)
fluorescent labeling of mCys-Fos (mCys-Fos): is not
selectivity for diCys-Fos in the presence of other cytosolic proteins (diCys-Fos [2]): selectivity of 20 for its designated target protein
viable COS cells (COS cells; 300 μM): 70%
concentration with low cytotoxicity relative to that necessary for efficient labeling (COS cells; COS cells): 30 times
percentage of viable COS cells (COS cells; concentrations of up to 30 μM): unaffected
fluorescent labeling of diCys-Fos (diCys-Fos [3]): efficiently fluorescently labeled
fluorescence of COS cells expressing diCys-Fos vs mock COS cells (diCys-Fos [4]; 10 μM, 20 minutes, room temperature): significant difference in fluorescence
cell permeability (diCys-Fos [4]; COS cells): confirming the cell permeability

From patent US7700375B2, “Fluorescent labeling of specific protein targets in vitro and in vivo” (Valorisation-Recherche, LP, priority 2004, dated 2010)
